Results from patent publication US5109025A, “Therapeutic agent for penal disorders” (Dainippon Ink and Chemicals, Inc., priority 1988, dated 1992).
Where a name gives a salt, the structure may show the parent alone.

What was measured:
[1] = tested on: hydrochloric acid-ethanol-induced ulcer; test: Antiulcer activity: HCl-ethanol ulcer model test; format: in vivo, SD male rats; details: for Inhibition Ratio (ulcer) / Ulcer Index: Dose 100 (unit not given), oral, n = 5 rats; for Ulcer Index: **: P < 0.01 vs control group (46.7 ± 34.6)
Protocol: Antiulcer activity was tested using hydrochloric acid-ethanol-induced ulcer model test which is widely used for evaluating the effectiveness of antiulcer drugs.
A group of five SD male rats each weighing from 200 to 250 g were starved for 24 hours, and then administered orally with 1.0 ml/200 g of 150 mM hydrochloric acid-60% ethanol. After 1 hour, the animals were sacrificed with ether, and the stomach was taken out from each animal. After pouring 10 ml of physiological saline in each of them the stomachs were dipped in 1% formalin solution for 10 minutes to fix them. Each of the stomachs was incised along the greater curvature (curvatura ventriculi major) and the lengths of mucosal ulcers which appeared in the gastric gland portion were measured under microscope (×10). The sum of the lengths per animal was calculated and defined as ulcer index. Test drugs were administered orally in a dose of 1,0 ml/200 g after 10 minutes from the induction of stress. Cetraxate hydrochloride known as antiulcer drug was used as positive comparative compound.

[2] = tested on: kidney injury induced by cis-platinum; test: Cis-platinum-induced kidney injury model test; format: in vivo, ddy male mice; details: for Blood Urea Nitrogen: 100 mg/kg/day oral, 5 days before and 5 days after 17 mg/kg s.c. cis-platinum, serum, mice, **: P < 0.01, *: P < 0.05 vs cis-platinum group (114.7 ± 18.4)
Protocol: In this example, tests were conducted to examine the therapeutical activity of THC against kidney injury induced by cis-platinum (cis-DDP) which is an anti-cancer drug and is known to have a very strong effect of inducing functional disorders of the kidney.
A group of ten ddy male mice each weighing from 20 to 25 g were orally administered with 100 mg/kg/day of THC or isoliquiritigenin (positive comparative compound) for 5 continuous days, subcutaneously injected with 17 mg/kg of cis-platinum once on the fifth day, and were treated moreover for 5 continuous days orally administered with THC or isoliquiritigenin in the same manner as above. Thereafter, blood samples were collected, and blood urea nitrogen (BUN) in the serum was measured.
In the test, a group of ten non-treated ddy male mice each weighing from 20 to 25 g were subcutaneously administered once with 17 mg/kg of cis-platinum only. This group was used as control.
For the measurement of blood urea nitrogen, there was used Urea NB-Test Wako (produced by Wako Pure Chemical Industry Co., Ltd.).

[3] = tested on: mast cells; test: Antiallergic activity: inhibition of histamine liberation from mast cells by Compound 48/80; format: cell-based, rat; details: for Liberation Ratio of Histamine / inhibition at 30 µM: 0.03 mM, Compound 48/80-induced; for Liberation Ratio of Histamine: control 82.4, blank 3.4; for inhibition at 30 µM: Rattus norvegicus, Mast cell, read-out: Inhibition Ratio (histamine liberation)
Protocol: Locke's solution (10 ml) containing 0.1% by weight of bovine serum albumin was injected into the abdominal cavity of a rat which had been sacrificed by exsanguination. The rat was lightly massaged, then subjected to an abdominal section so that an abdominal solution was collected. The abdominal cavity was also washed with 5 ml of the same solution and the washing solution was collected and mixed with the above abdominal solution. The abdominal solution was centrifuged at 500 rpm for 5 minutes, then 5 ml of cool Locke's solution was added to the sediment. After the sediment had been washed, 3 ml of cool Locke's solution was again added thereto to form a solution of rat peritoneal exudation cells.
Locke's solution (0.5 ml) and 1.0 ml of THC or isoliquiritigenin solution prepared in a concentration of 0.03 mM (THC or isoliquiritigenin was dissolved in a physiological saline solution containing 1% sodium bicarbonate, the resultant solution being diluted with Locke's solution) was added to 0.3 ml of the solution of rat peritoneal exudation cells obtained in (1) above and were incubated at 37° C. for 5 minutes. Then, 0.2 ml each of a Lock's solution of Compound 48/80 (1 mg/100 ml) was added to the solution and the mixture was incubated at 37° C. for 10 minutes. After the reaction was stopped by cooling, the obtained solution was centrifuged at 2,500 rpm for 10 minutes to separate into 1.7 ml of supernatant and 0.3 ml of sediment. Water (0.1 ml) and 0.2 ml of 100% trichloroacetic acid were added to the supernatant, and 1.5 ml of Locke's solution and the 100% trichloroacetic acid were added to the sediment which was then allowed to stand for 30 minutes at room temperature and was centrifuged at 3000 rpm for 15 minutes. A portion (0.35 ml) of each of the supernatant and the supernatant of the sediment was taken and 1.65 ml of water and 0.4 ml of 1N sodium hydroxide were added in turn to each of the supernatants. 0.5% OPT (orthophthalaldehyde) methanol solution (0.1 ml) was added to each of the resultant solutions which were then allowed to react at room temperature for 4 minutes. After the reaction was stopped by the addition of 0.2 ml of 2M citric acid, the fluorescence of each of the reaction solutions was measured by a fluorophotometer.
As a control, Locke's solution was added instead of the solution of THC and, as a blank, the Locke's solution was added instead of THC and Compound 48/80, the other operations being the same as those described above.
The inhibition ratio of THC or isoliquiritigenin for the liberation of histamine by Compound 48/80 is calculated from the following equations: [formula] Ps: Amount of free histamines (in the supernatant) Pr: Amount of remaining histamines (in the sediment) [formula] I: Value of A of THC or isoliquiritigenin C: Value of A of the control
B: Value of A of the blank

[4] = tested on: carragheenin-induced paw edema; test: Antiinflammatory activity: carragheenin-induced paw edema; format: in vivo, SD male rat; details: 300 mg/kg, oral, 60 minutes before carragheenin; rat
Protocol: The antiinflammatory activity of THC was tested by using carragheenin-induced paw edema method widely used for the evaluation of the effectiveness of general antiinflammatory drugs (NSAID).
A 1%-λ-carragheenin physiological saline solution (0.1 ml) was subcutaneously injected to the right paw of an SD male rat weighing from 200 to 250 g, and the volume of paw was measured after 30, 60, 90, 120, 180 and 300 minutes, respectively. The test drug (THC) had been administered orally in a dosage of 1.0 ml/200 g 60 minutes before the administration of carragheenin. The control group was administered orally with the solvent only in the same dosage. Edema ratio was calculated according to the following equation.
Edema Ratio=[(Ps-P0)/P0 ]×100
where Ps stands for value measured at a point in time after elapse of a predetermined time, and P0 value indicates a value measured at 0 minute after the administration.

[5] = tested on: ddy mice; test: Toxicity test: minimum lethal dose; format: in vivo; details: 5-week old male ddy mice
Protocol: In this example, tests were conducted to confirm the safety of THC, which is the active ingredient of the drug of the present invention.
THC was administered by oral administration or intraperitoneal injection to five 5-week old male ddy mice.

[6] = compared with isoliquiritigenin

SMILES | Inhibition Ratio (ulcer) [1] | Ulcer Index [1] | inhibitory activity against hydrochloric acid-ethanol-induced ulcer (in words) ([1]; rat) | Blood Urea Nitrogen [2] | suppression of the increase in blood urea nitrogen due to kidney injury induced by cis-platinum (in words) [2, 6] | Liberation Ratio of Histamine [3] [%] | inhibition at 30 µM [3] [%] | inhibition effect on histamine liberation from rat mast cells caused by Compound 48/80 (in words) [3, 6] | inhibitory effect against carragheenin-induced edema [4] | minimum lethal dose ([5]; intraperitoneal injection) | minimum lethal dose ([5]; oral administration)
NC[C@H]1CC[C@H](C(=O)Oc2ccc(CCC(=O)O)cc2)CC1 [Cetraxate hydrochloride, reference compound] | 75.7 | 11.2 ± 20.0 | – | – | – | – | – | – | – | – | –
O=C(/C=C/c1ccc(O)c(O)c1)c1ccc(O)cc1O [THC, 2',3,4,4'-tetrahydroxychalcone] | 97.3 | 1.2 ± 2.5 | remarkable inhibitory activity | 47.1 ± 12.6 | more potently than isoliquiritigenin | 10.4 | 91.1 | more potent than isoliquiritigenin | marked inhibitory effect | not less than 1,000 mg/kg | not less than 3,000 mg/kg
O=C(/C=C/c1ccc(O)cc1)c1ccc(O)cc1O [isoliquiritigenin, reference compound] | – | – | – | 70.6 ± 14.0 | – | 71.2 | 14.2 | – | – | – | –
